# Assay results taken from patent EP0457908A1, “HYDROCHLORIDE 2,3,3a,4,5,6-HEXAHYDRO-8-CYCLOHEXYL-1H-PYRAZINO (3,2,1-j,k)CARBAZOL, METHOD OF OBTAINING IT AND A PHARMACEUTICAL PREPARATION OF ANTIDEPRESSIVE ACTION BASED ON IT” (priority 1989, dated 1991).
# Tests used:
# white mice [1] = test: Reserpine-induced blepharoptosis; type: in vivo; conditions: acute and chronical experiments
# Description: The compound according to the present invention was tested for the ability to decrease depriming effects of reserpin (blepharoptosis, hypothermia and the like).
# Tests were carried out on white mice of both sexes with a mass of 16-18 g.
# The compound according to the present invention was orally administered in a single dose and repeatedly during 18 days.
# The compound according to the present invention was administered in the single doses of 1, 2.5 and 5 mg/kg; repeatedly - in the doses of 0.5, 1.0, 2.5 and 5 mg/kg. The single-time administration and the last administration of the 18 days' course were effected 60 minutes prior to the intraperitoneal administration of reserpine (2.5 mg/kg). For a comparative assessment in these and other experiments pyrazidol and imipramine were also administered.
# white mice [2] = test: Enhancement of the effect of 5-hydroxytryptophane (head shaking); type: in vivo
# Description: The compound according to the present invention was tasted for the exciting effect of 5-hydroxytryptophane (head shaking).
# The compound according to the present invention in the doses of 1.0, 2.5, 5.0 and 10 mg/kg was administered orally 60 minutes prior to an intraperitoneal administration of 5-hydroxytryptophane (50 mg/kg).
# monoaminoxidase [3] = target: T1, monoaminoxidase (Rattus norvegicus, UniProt P21396); test: Monoaminoxidase activity in brain and liver homogenates after oral dosing; type: in vivo, male white rats
# T1 sequence (P21396 1-526): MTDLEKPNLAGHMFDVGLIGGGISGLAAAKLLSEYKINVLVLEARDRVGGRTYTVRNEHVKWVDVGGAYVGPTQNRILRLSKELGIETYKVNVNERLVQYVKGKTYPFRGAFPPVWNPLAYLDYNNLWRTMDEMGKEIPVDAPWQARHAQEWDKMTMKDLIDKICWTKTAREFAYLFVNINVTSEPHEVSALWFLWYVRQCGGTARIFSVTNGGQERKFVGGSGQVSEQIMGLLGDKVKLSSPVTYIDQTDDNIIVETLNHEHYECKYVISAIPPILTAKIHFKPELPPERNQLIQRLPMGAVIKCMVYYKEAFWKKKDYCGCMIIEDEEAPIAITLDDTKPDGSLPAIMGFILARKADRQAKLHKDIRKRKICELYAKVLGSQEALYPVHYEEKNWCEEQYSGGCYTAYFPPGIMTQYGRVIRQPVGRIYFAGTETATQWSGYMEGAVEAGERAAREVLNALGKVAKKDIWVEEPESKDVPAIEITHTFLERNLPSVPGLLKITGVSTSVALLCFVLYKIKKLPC
# Description: (§1) The effect of the compound according to the present invention on the activity of monoaminoxidase was studied in special biochemical investigations.
# (§2) The experiments were conducted in vivo on male white rats with a mass of 180-200 g. The compound in the doses of 5, 10, 25 and 50 mg/kg was administered orally. An equal volume of a […] of NaCl was administered to control animals. 1.5 hour after administration of the drug the animals were killed. […] The activity of monoaminoxidase was determined in 50% homogenates of the liver and brains of rate prepared on the basis of a 0.1 M phosphate buffer (pH = 7.4) containing 2% of a detergent - Trytol X-100. The substrates were used in concentrations of serotonin 10 µmol, tyramine 6 µmol per sample. The activity of monoaminoxidase was evaluated by liberation of ammonia during incubation of the samples for 50 minutes at the temperature of 37 °C in an oxygen atmosphere.
# (§3) Protein in homogenates of the rat liver and brain was determined following the Peterson procedure (1977).
# monoaminoxidase [4] = test: as above; type: in vivo, male white rats
# Description: as §1, §2, §3
# mice = test: Acute toxicity, mice; type: in vivo
# Source text: The acute and chronical toxicity of the compound according to the present invention was studied on mice, rats and rabbits.
# patients = test: Clinical test on patients with depressions; type: in vivo, human beings
# Description: The drug according to the present invention was tested in a clinic on patients (561 persons) aged 18 to 72 suffering from depressions of various genesis - endogenous, reactive, neurotic depressions caused by organic injuries of the brain, as well as depressive disturbances in chronical alcoholism and the like.
# Clinical tests for different types of depressions were carried out in the following groups of patients:
# The drug according to the present invention was administered orally in tablets twice a day - in the morning and in the afternoon. The dose depended on the severity of disease, efficiency and tolerance of the drug.
# The treatment was usually started with administration of the drug in single doses of 0.025 g (25 mg) with a gradual increment of the daily dose for 1 to 3 weeks up to 200-300 to 350-400 mg.
# The treatment duration ranged from 7 days to 12 weeks, more frequently 40-45 days.
# In a number of cases (55 patients) the drug according to the present invention was administered in combination with other psychotropic agents selected mainly from the group of tranquilizers and neuroleptics (tazepam, seduxen, tizercin, and the like).
# The efficiency as the drug according to the present invention was assessed with the use of assessment scales.
# [5] = test system: normotensive female rats of the Vistar line; test: Influence on the pressor effect of tyramine
# Description: The experiments were conducted on conscious normotensive female rats of the Vistar line with a mass of 210-250 g placed under conditions of a free behaviour.
# [6] = 5 mg/kg oral, 1.5 hour after administration
# [7] = 10 mg/kg oral, 1.5 hour after administration
# [8] = 25 mg/kg oral, 1.5 hour after administration (Table 5)
# [9] = 25 mg/kg orally, time 1.5 hours (Table 6)
# [10] = 25 mg/kg orally, time 6.0 hours
# [11] = 25 mg/kg orally, time 48.0 hours
# [12] = 50 mg/kg oral, 1.5 hour after administration
# [13] = endogenous depressions (maniac-depressive psychosis, schizophrenia), asthenic or asthenoadynamic syndromes, light and medium severity
substance,measurement,setting,value
"2,3,3a,4,5,6-hexahydro-8-cyclohexyl-1H-pyrazino-(3,2,1-j,k)-carbazole hydrochloride [Compound of the present invention]","anti-reserpine effect, superior to pyrazidol",white mice [1],more than 10 times
same,more active than pyrazidol in enhancing the convulsive activity of 5-hydroxytryptophane,"white mice [2]; mice, ratio of ED₅₀",about 8 times
same,"ED₅₀, the dose at which head shaking were noticed in 50% of the animals","white mice [2]; orally, 60 minutes prior to 5-hydroxytryptophane 50 mg/kg intraperitoneally, read 25 minutes after",2.5 (2.1-3.0) mg/kg
same,"Inhibition of deamination, % (M±m), Liver, Serotonin",monoaminoxidase [3]; [6],36±9.0%
same,"Inhibition of deamination, % (M±m), Brain, Serotonin","monoaminoxidase [3]; 5 mg/kg oral, 1.5 hour after administration, listed as Compound of the invention, hydrochloride",60±6.3%
same,"Inhibition of deamination, % (M±m), Brain, Serotonin","monoaminoxidase [3]; 5 mg/kg oral, 1.5 hour after administration, listed as compound according to the present invention, hydrochloride",60%
same,"Inhibition of deamination, % (M±m), Brain, Serotonin",monoaminoxidase [3]; [7],61±7.6%
same,"Inhibition of deamination, % (M±m), Liver, Serotonin",monoaminoxidase [3]; [7],27±6.7%
same,"Inhibition of deamination, % (M±m), Brain, Serotonin",monoaminoxidase [3]; [8],71±7.6%
same,"Inhibition of deamination, % (M±m), Liver, Serotonin",monoaminoxidase [3]; [8],64±6.4%
same,"Inhibition of deamination, % (M±m), Brain, Serotonin",monoaminoxidase [3]; [9],71.0±2.0%
same,"Inhibition of deamination, % (M±m), Liver, Serotonin",monoaminoxidase [3]; [9],64.0±6.4%
same,"Inhibition of deamination, % (M±m), Brain, Serotonin",monoaminoxidase [3]; [10],66.5±3.0%
same,"Inhibition of deamination, % (M±m), Liver, Serotonin",monoaminoxidase [3]; [10],53.0±3.0%
same,"Inhibition of deamination, % (M±m), Brain, Serotonin",monoaminoxidase [3]; [11],14.0±4.8%
same,"Inhibition of deamination, % (M±m), Liver, Serotonin",monoaminoxidase [3]; [11],0%
same,"Inhibition of deamination, % (M±m), Brain, Serotonin",monoaminoxidase [3]; [12],93±3.0%
same,"Inhibition of deamination, % (M±m), Liver, Serotonin",monoaminoxidase [3]; [12],89±2.7%
same,"Inhibition of deamination, % (M±m), Brain, Tyramine",monoaminoxidase [4]; [6],17±4.2%
same,"Inhibition of deamination, % (M±m), Liver, Tyramine",monoaminoxidase [4]; [6],0%
same,"Inhibition of deamination, % (M±m), Brain, Tyramine",monoaminoxidase [4]; [7],16.6±3.4%
same,"Inhibition of deamination, % (M±m), Liver, Tyramine",monoaminoxidase [4]; [7],0%
same,"Inhibition of deamination, % (M±m), Brain, Tyramine",monoaminoxidase [4]; [8],40±3.0%
same,"Inhibition of deamination, % (M±m), Liver, Tyramine",monoaminoxidase [4]; [8],0%
same,time after which the activity of monoaminoxidase was fully restored,monoaminoxidase [4]; 25 mg/kg orally,48 h
same,"Inhibition of deamination, % (M±m), Brain, Tyramine",monoaminoxidase [4]; [9],40.0±3.0%
same,"Inhibition of deamination, % (M±m), Liver, Tyramine",monoaminoxidase [4]; [9],0%
same,"Inhibition of deamination, % (M±m), Brain, Tyramine",monoaminoxidase [4]; [10],36.0±9.3%
same,"Inhibition of deamination, % (M±m), Liver, Tyramine",monoaminoxidase [4]; [10],0%
same,"Inhibition of deamination, % (M±m), Brain, Tyramine",monoaminoxidase [4]; [11],2.5±1.1%
same,"Inhibition of deamination, % (M±m), Liver, Tyramine",monoaminoxidase [4]; [11],0%
same,"Inhibition of deamination, % (M±m), Brain, Tyramine",monoaminoxidase [4]; [12],43±6.6%
same,"Inhibition of deamination, % (M±m), Liver, Tyramine",monoaminoxidase [4]; [12],0%
same,character of the inhibiting effect on the activity of monoaminoxidase,"monoaminoxidase [4]; rat, in vivo",reversible selective inhibitor of monoaminoxidase of the A type
same,LD₅₀,"mice; oral administration, mice","1,300 mg/kg"
same,LD₅₀,mice; white mice,1.3 g/kg
same,"improvement observed, % of cases",patients; depressive disorders of the neurotic and reactive genesis,80-100%
same,"improvement observed, % of the events",patients; [13],37-92%
same,"improvement observed, % of the events, on the average",patients; [13],50%
same,patients with a previous resistance to another antidepressant therapy in whom the drug was highly effective,"patients; human, in vivo",6 out of 21
same,toleration by patients,"patients; human, in vivo",good toleration by patients
same,enhanced effect of tyramine,[5]; 5 mg/kg orally for 5 days,no enhanced effect of tyramine was observed
same,time after administration at which the enhanced effect of tyramine was noticed,[5]; 25 mg/kg orally,6 to 18 h
same,enhanced the pressor effect of tyramine,"[5]; 25 mg/kg orally, tyramine 20 mg/kg orally",2 times
